# Test system: CD1b-restricted MA-specific TCR transgenic DN1 T cells
# Type: cell-based, mouse
substance,measurement,value
mycolic acid [MA],IFN-γ production by DN1 T cells to MA-pulsed DC (ELISPOT),produced IFN-γ
same,"activation of DN1 T cells (CD69, CD25, IFN-γ)",able to activate DN1 T cells

# Reference: US12194084B2 (priority 2019, dated 2025)
